Data from ChEMBL document CHEMBL5233206, “An overview on the synthesis of carbohydrate-based molecules with biological activity related to neurodegenerative diseases” (RSC Med Chem, 2021).

target: T1, Acetylcholinesterase (Electrophorus electricus, UniProt O42275); details: not given
T1 sequence (O42275 whole entry): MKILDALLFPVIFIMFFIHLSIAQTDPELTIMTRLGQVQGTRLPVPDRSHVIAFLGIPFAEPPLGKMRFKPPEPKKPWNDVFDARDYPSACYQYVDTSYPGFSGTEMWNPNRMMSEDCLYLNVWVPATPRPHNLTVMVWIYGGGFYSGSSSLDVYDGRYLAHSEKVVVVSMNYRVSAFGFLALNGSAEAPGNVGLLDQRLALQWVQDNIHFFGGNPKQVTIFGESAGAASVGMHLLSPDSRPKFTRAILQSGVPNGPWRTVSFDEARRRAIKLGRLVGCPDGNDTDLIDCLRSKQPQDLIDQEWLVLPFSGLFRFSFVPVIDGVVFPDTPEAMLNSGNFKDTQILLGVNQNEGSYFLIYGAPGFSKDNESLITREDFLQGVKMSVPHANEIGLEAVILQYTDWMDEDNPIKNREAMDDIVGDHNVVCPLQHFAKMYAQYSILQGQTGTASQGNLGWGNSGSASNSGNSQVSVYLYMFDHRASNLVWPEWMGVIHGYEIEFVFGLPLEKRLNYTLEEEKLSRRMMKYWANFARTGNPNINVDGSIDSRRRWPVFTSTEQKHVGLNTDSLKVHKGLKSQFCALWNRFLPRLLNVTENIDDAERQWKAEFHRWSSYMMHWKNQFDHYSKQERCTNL

Compound	Ki [µM]
Cn1cnc2c1c(=O)n(C[C@H]1O[C@@H]3OC(C)(C)O[C@@H]3[C@H]1OCc1ccccc1)c(=O)n2C	> 100
COC1O[C@H](Cn2ccc(=O)n(C[C@H]3O[C@H](OC)[C@H](O)[C@@H](O)[C@@H]3O)c2=O)[C@@H](O)[C@H](O)[C@H]1O (stereo partly specified)	22.9
CCCCCCCCCCCCNC(=O)[C@@H](OCc1ccccc1)[C@H]1O[C@H](n2cc(-c3ccccc3)nn2)[C@H](OC(C)=O)[C@H]1OCc1ccccc1	9.69
CCCCCCCCCCCCNC(=O)[C@@H](OCc1ccccc1)[C@H]1OC(n2cc(-c3ccccc3)nn2)[C@H](OC(C)=O)[C@H]1OC(C)=O (stereo partly specified)	9.5
COC1O[C@H](Cn2ccc(=O)n(C[C@H]3O[C@H](OC)[C@H](OCc4ccccc4)[C@@H](OCc4ccccc4)[C@@H]3OCc3ccccc3)c2=O)[C@@H](OCc2ccccc2)[C@H](OCc2ccccc2)[C@H]1OCc1ccccc1 (stereo partly specified)	4.2
CCCCCCCCCCCCNC(=O)[C@@H](OCc1ccccc1)[C@H]1OC(OC(C)=O)[C@H](OC(C)=O)[C@H]1OCc1ccccc1 (stereo partly specified)	> 100
CO[C@H]1O[C@H](Cn2cnc3c(Cl)nc(NC(C)=O)nc32)[C@@H](OCc2ccccc2)[C@H](OCc2ccccc2)[C@H]1OCc1ccccc1	7.1
CCCCCCCCCCCCNC(=O)[C@@H](OCc1ccccc1)[C@H]1O[C@H](N=[N+]=[N-])[C@H](OC(C)=O)[C@H]1OCc1ccccc1	> 100

species: Homo sapiens; experiment: Selectivity ratio of IC50 for AChE (unknown origin) to IC50 for BuChE (unknown origin); details: not given

Compound	Ratio IC50
O=c1c2ccccc2n(CCCCCCn2cc(CO[C@@H]3O[C@H](CO)[C@@H](O)[C@H]3O)nn2)c2ccccc12	20.6

target: T2, Cholinesterase (Equus caballus, UniProt P81908); details: not given
T2 sequence (P81908 whole entry): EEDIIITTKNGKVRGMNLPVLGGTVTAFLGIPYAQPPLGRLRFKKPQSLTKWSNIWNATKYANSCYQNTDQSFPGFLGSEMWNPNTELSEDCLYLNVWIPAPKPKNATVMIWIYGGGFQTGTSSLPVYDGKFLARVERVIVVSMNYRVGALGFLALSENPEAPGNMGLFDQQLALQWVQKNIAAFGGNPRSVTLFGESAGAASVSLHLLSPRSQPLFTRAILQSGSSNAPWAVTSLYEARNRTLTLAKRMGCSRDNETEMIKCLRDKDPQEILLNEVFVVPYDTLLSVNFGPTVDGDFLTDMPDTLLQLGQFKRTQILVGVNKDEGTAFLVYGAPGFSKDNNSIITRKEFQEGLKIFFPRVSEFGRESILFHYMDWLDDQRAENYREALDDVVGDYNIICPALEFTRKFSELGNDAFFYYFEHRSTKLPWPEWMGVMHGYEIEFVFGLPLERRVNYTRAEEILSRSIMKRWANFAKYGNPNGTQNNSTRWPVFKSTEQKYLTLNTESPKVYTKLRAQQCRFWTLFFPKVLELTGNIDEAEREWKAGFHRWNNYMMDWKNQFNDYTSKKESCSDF

Compound	IC50 [µM]
COc1ccc2c(c1)c(=O)c1ccccc1n2CCCCCCn1cc(CO[C@@H]2O[C@H](CO)[C@@H](O)[C@H]2O)nn1	35.1
COc1ccc2c(c1)c(=O)c1ccccc1n2CCCCCCn1cc(CO[C@@H]2O[C@H](CO)[C@@H](O)[C@H](O)[C@H]2O)nn1	82.3
O=c1c2ccccc2n(CCCCCCn2cc(CO[C@@H]3O[C@H](CO)[C@@H](O)[C@H]3O)nn2)c2ccccc12	6.95
O=c1c2ccccc2n(CCCCCCn2cc(CO[C@@H]3O[C@H](CO)[C@@H](O)[C@H](O)[C@H]3O)nn2)c2ccccc12	29.3
COc1ccc2c(c1)c(=O)c1ccccc1n2CCCCCCn1cc(CO[C@H]2C[C@H](O)[C@@H](CO)O2)nn1	35.4
COc1ccc2c(c1)c(=O)c1ccccc1n2CCCCCCn1cc(CO[C@@H]2O[C@H](CO)[C@H](O)[C@H](O)[C@H]2O)nn1	65.6
O=c1c2ccccc2n(CCCCCCn2cc(CO[C@H]3C[C@H](O)[C@@H](CO)O3)nn2)c2ccccc12	42.8
O=c1c2ccccc2n(CCCCCCn2cc(CO[C@@H]3O[C@H](CO)[C@H](O)[C@H](O)[C@H]3O)nn2)c2ccccc12	38.3

target: T2, Cholinesterase; experiment: Binding affinity to horse serum BuChE using ATCh-iodide as substrate by ellman's method; details: not given

Compound	Ki [µM]
OC[C@H]1O[C@@H](OCCN2CN(Cc3ccccc3)c3ccccc32)[C@H](O)[C@@H](O)[C@@H]1O	52
OC[C@H]1O[C@@H](OCCn2cnc3ccccc32)[C@H](O)[C@@H](O)[C@H]1O	782
OC[C@H]1O[C@@H](OCCN2CN(Cc3ccccc3)c3ccccc32)[C@H](O)[C@@H](O)[C@H]1O	26

target: T3, Cholinesterase (Homo sapiens, UniProt P06276); details: not given
T3 sequence (P06276 whole entry): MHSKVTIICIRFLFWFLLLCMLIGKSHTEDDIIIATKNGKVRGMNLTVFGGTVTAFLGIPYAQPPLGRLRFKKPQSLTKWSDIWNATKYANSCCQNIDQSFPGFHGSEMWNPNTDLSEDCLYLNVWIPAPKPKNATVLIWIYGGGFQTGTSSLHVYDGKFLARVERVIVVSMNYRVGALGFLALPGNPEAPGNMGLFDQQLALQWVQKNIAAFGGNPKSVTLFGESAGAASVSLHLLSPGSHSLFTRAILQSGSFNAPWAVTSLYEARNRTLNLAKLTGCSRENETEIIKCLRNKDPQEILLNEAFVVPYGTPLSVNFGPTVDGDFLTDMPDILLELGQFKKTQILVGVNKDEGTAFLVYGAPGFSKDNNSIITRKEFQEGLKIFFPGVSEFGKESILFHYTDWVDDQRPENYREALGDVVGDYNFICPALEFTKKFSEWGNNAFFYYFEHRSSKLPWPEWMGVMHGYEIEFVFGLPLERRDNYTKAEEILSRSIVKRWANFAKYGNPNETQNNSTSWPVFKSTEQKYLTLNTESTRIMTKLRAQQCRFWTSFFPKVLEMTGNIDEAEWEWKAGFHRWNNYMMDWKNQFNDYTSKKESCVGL

Compound	Ki [µM]
COC1O[C@H](Cn2ccc(=O)n(C[C@H]3O[C@H](OC)[C@H](O)[C@@H](O)[C@@H]3O)c2=O)[C@@H](O)[C@H](O)[C@H]1O (stereo partly specified)	< 100
COC1O[C@H](Cn2ccc(=O)n(C[C@H]3O[C@H](OC)[C@H](OCc4ccccc4)[C@@H](OCc4ccccc4)[C@@H]3OCc3ccccc3)c2=O)[C@@H](OCc2ccccc2)[C@H](OCc2ccccc2)[C@H]1OCc1ccccc1 (stereo partly specified)	4
CO[C@H]1O[C@H](Cn2cnc3c(Cl)nc(NC(C)=O)nc32)[C@@H](OCc2ccccc2)[C@H](OCc2ccccc2)[C@H]1OCc1ccccc1	< 100
COC1O[C@H](Cn2ccc(=O)[nH]c2=O)[C@@H](OCc2ccccc2)[C@H](OCc2ccccc2)[C@H]1OCc1ccccc1 (stereo partly specified)	< 100

target: T3, Cholinesterase; experiment: Binding affinity to BuChE (unknown origin) assessed as inhibition constant by ellman's method; details: not given

Compound	Ki [µM]
O=c1c2ccccc2n(CCCCCCn2cc(CO[C@@H]3O[C@H](CO)[C@@H](O)[C@H]3O)nn2)c2ccccc12	1.76

tested on: not listed separately; experiment: Antioxidant activity assessed as ABTS radical scavenging activity; type: functional; details: not given

Compound	IC50 [µM]
CCCCCCCC[Se]C[C@H]1OC(OC)[C@H](O)[C@H]1O (stereo partly specified)	210

target: T3, Cholinesterase; details: not given; remark: another data set of the same source

Compound	Ki [µM]
CC(=O)Nc1nc(Cl)c2c(ncn2[C@H]2O[C@H](COCc3ccccc3)[C@@H](OCc3ccccc3)[C@H](OCc3ccccc3)[C@@H]2OCc2ccccc2)n1	0.05

target: Acetylcholinesterase (Homo sapiens, UniProt P22303); experiment: Inhibition of AChE (unknown origin); details: not given
Sequence (P22303 whole entry): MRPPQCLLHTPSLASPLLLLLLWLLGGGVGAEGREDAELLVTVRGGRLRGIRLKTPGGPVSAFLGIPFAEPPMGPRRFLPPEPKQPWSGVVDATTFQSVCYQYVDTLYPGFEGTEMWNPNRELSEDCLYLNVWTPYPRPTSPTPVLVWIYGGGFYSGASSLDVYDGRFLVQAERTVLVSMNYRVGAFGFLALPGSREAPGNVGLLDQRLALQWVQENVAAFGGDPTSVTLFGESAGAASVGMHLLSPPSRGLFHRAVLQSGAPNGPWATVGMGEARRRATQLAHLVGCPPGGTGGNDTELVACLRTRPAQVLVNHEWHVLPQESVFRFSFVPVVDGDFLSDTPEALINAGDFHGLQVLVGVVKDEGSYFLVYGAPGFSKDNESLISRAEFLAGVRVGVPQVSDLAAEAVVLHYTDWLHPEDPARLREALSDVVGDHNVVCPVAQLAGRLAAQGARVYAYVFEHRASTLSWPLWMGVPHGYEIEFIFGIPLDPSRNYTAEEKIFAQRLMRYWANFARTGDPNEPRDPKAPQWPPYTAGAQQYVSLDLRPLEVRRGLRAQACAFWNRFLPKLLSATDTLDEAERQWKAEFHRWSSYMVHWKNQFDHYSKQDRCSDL

Compound	IC50 [µM]
CC1=C(CO[C@@H]2O[C@H](CO[C@@H]3O[C@H](CO)[C@@H](O)[C@H](O)[C@H]3O)[C@@H](O)[C@H](O)[C@H]2O)C(C)(C)CCC1	3.2
COc1cc(CO)ccc1O[C@@H]1O[C@H](CO)[C@@H](O)[C@H](O)[C@H]1O [VANILLOLOSIDE]	4.55
COc1cc([C@@H](O)[C@H](CO[C@@H]2O[C@H](CO)[C@@H](O)[C@H](O)[C@H]2O)Oc2ccc(CCCO)cc2OC)ccc1O	0.75

target: T1, Acetylcholinesterase; experiment: Inhibition of electrical eel AChE by ellman's method; details: not given

Compound	IC50 [µM]
COc1ccc2c(c1)c(=O)c1ccccc1n2CCCCCCn1cc(CO[C@@H]2O[C@H](CO)[C@@H](O)[C@H]2O)nn1	81.8
COc1ccc2c(c1)c(=O)c1ccccc1n2CCCCCCn1cc(CO[C@@H]2O[C@H](CO)[C@@H](O)[C@H](O)[C@H]2O)nn1	56.1
O=c1c2ccccc2n(CCCCCCn2cc(CO[C@@H]3O[C@H](CO)[C@@H](O)[C@H]3O)nn2)c2ccccc12	143
O=c1c2ccccc2n(CCCCCCn2cc(CO[C@@H]3O[C@H](CO)[C@@H](O)[C@H](O)[C@H]3O)nn2)c2ccccc12	38.2
COc1ccc2c(c1)c(=O)c1ccccc1n2CCCCCCn1cc(CO[C@H]2C[C@H](O)[C@@H](CO)O2)nn1	85.1
COc1ccc2c(c1)c(=O)c1ccccc1n2CCCCCCn1cc(CO[C@@H]2O[C@H](CO)[C@H](O)[C@H](O)[C@H]2O)nn1	44.7
O=c1c2ccccc2n(CCCCCCn2cc(CO[C@H]3C[C@H](O)[C@@H](CO)O3)nn2)c2ccccc12	167
O=c1c2ccccc2n(CCCCCCn2cc(CO[C@@H]3O[C@H](CO)[C@H](O)[C@H](O)[C@H]3O)nn2)c2ccccc12	44.7

tested on: not listed separately; experiment: Lipophilicity, logP of the compound; type: physicochemical; details: octanol/water

Compound	logP
COc1ccc2c(c1)c(=O)c1ccccc1n2CCCCCCn1cc(CO[C@@H]2O[C@H](CO)[C@@H](O)[C@H](O)[C@H]2O)nn1	2.14
O=c1c2ccccc2n(CCCCCCn2cc(CO[C@@H]3O[C@H](CO)[C@@H](O)[C@H]3O)nn2)c2ccccc12	2.68
O=c1c2ccccc2n(CCCCCCn2cc(CO[C@@H]3O[C@H](CO)[C@@H](O)[C@H](O)[C@H]3O)nn2)c2ccccc12	2.14
